The nature of this data set: gradient 5% acetonitrile 3 min, to 50% in 2 min, to 85% in 15 min, held 3 min, 100 µL/min. As to conditions: column: Zorbax Extend-C18 2.1 x 50 mm; eluents: water / acetonitrile, 0.1% formic acid. The essentials:
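The mobile phases were water and acetonitrile, each with 0.1% formic acid, pumped at 100 μL/min through a Zorbax Extend-C18 column (2.1 × 50 mm, 1.8 μm). Pure standards were injected as mixtures of ~100 molecules and detected by a quadrupole time-of-flight mass spectrometer in positive and negative ionization mode. Retention time came from computationally picked adduct peaks, each inspected by hand.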
Compound `COc1cc(NC(=O)c2cc3cc4cc(OC)ccc4nc3o2)cc(OC)c1` displayed an RP-LC retention time of 971 s.
`Cc1nn(C(=O)CCc2ccccc2)c(C)c1S(=O)(=O)N1CCCC1` came in with an RP-LC retention time of 1180 s.
In turn, `O=S(=O)(c1cccc2cccnc12)N1CCc2nc(-c3ccc(Cl)cc3)ncc2C1` registered an RP-LC retention time of 1140 s.
Then `COCc1nc2cccnc2n1C1CCN(C(=O)Nc2ccc3c(c2)OCO3)CC1`, with 658 s; and `Cc1noc([C@@H]2CN(C(=O)Cc3c(C)noc3C)C[C@H]2C(N)=O)n1`, with 593 s.
As for `Cc1ccc(CNC(=O)c2ccc3c(c2)CC(=O)N3C)o1`, the RP-LC retention time was 693 s.
For `COc1ccccc1CNC1=NCCNC12CCN(S(=O)(=O)c1ccc(Cl)cc1)CC2` the value was 750 s.
`CSc1ncccc1C(=O)N(Cc1ccsc1)Cc1ccccn1`: the RP-LC retention time came to 690 s.
`Cc1cccc2nnc(N3CCC(C(=O)N4CCC(C)CC4)CC3)n12` came in with an RP-LC retention time of 663 s.
Then `C=CCn1nc(C)c(-c2cc(C(=O)O)[nH]n2)c1C`, with 605 s.
As to `CCC(=O)N(C1CCOCC1)C1CCN(S(=O)(=O)c2cccc(Cl)c2)CC1`, the RP-LC retention time was 872 s.
For `Cc1ccccc1NC(=O)CN1C(=O)CC(c2ccccc2)S(=O)(=O)c2ccccc21` (stereo not drawn) the value was 894 s; for `CCC(=O)N1CCCC(C(=O)NC2CC2)C1` (stereo not drawn), 567 s.
For `O=C(NC1CCCCCC1)c1ccc(Cn2cncn2)cc1` the value was 714 s; for `CN(CC1CCOCC1)C(=O)Nc1ccccc1F`, 720 s.
For `COc1ccc(Oc2cc3c(cc2NC(=O)Nc2ccccc2)n(C)c(=O)n3C)cc1` the value was 893 s; for `O=C(NCCN1CCc2ccccc2C1)c1cccc2c1CCN2C(=O)C1CC1`, 640 s.
Compound `COc1ccc(OC)c(NC(=O)N2CCN(Cc3nc4cc(C)ccc4o3)CC2)c1` had an RP-LC retention time of 721 s.
Then `COc1cc(OC)c(OC)cc1CN1CCC(C)(c2noc(C3CCOCC3)n2)CC1`, with 642 s; and `CN1CCCc2cc(C(=O)N3CCC4(CC3)OCCO4)sc21`, with 796 s.
Regarding `COc1ccccc1N1CCN(S(=O)(=O)c2cc(-c3cc(C(F)(F)F)on3)cs2)CC1`, the RP-LC retention time turned out to be 1200 s.
Turning to `COC(=O)c1ccccc1NC(=O)NCc1ccccc1`, the RP-LC retention time was 855 s.
Compound `COCCN1C(=O)CCc2cc(NS(=O)(=O)c3c(C)cccc3Cl)ccc21` showed an RP-LC retention time of 795 s.
In turn, `CCOc1ccc2nc(NC(=O)Cc3csc4nc(-c5ccc(C)c(C)c5)cn34)sc2c1` came in with an RP-LC retention time of 980 s.
`CCc1ccc(NC(=O)Cn2c(C(C)C)nc3cc4c(cc32)OCCO4)cc1` gave an RP-LC retention time of 742 s.
For `CNC(=O)N1CCCC(c2cccc(C(=O)NC(C)c3ccc(C)cc3C)c2)C1` (stereo not drawn) the value was 880 s; for `Cc1ccc(-c2nc(C)c(C(=O)N3CCCC3)s2)cc1`, 906 s.
Then `CN1C(=O)c2cc(S(=O)(=O)NCc3ccccc3F)ccc2Oc2cccnc21`, with 871 s; and `CC1(C(=O)NCc2ccccc2)Cn2cnc(C(=O)NC3CC3)c2C(=O)N1C1CC1` (stereo not drawn), with 660 s; and `CN(NC(=O)CC(=O)NN(C)C(=S)c1ccccc1)C(=S)c1ccccc1`, with 862 s.
For `COc1ccc(NC(=O)Cn2nc3nc(N4CCCC(C)C4)ccn3c2=O)cc1` (stereo not drawn) the value was 734 s; for `Cc1noc(-c2ccc(OC3CN(C(=O)c4cccn4C)C3)cc2)n1`, 898 s.
`CN(C(=O)CN1C(=O)NC2(CCCCC2)C1=O)c1ccccc1` returned an RP-LC retention time of 740 s.
`O=C(Nc1ccc(Br)cc1)N1CCC(N2CCN(Cc3ccccc3)C2=O)CC1` had an RP-LC retention time of 893 s.
Then `COc1cccc(NC(=O)N2CCN(Cc3nc4cc(Cl)ccc4o3)CC2)c1`, with 731 s; and `Cc1nc2ccccc2n(CCC(=O)NCCc2c[nH]c3ccc(Cl)cc23)c1=O`, with 795 s.
As to `COc1ccc(C(C)(C)C)cc1S(=O)(=O)Nc1ccc(-c2cn3ccc(C)nc3n2)cc1`, the RP-LC retention time came to 758 s.
In the case of `COc1cc(-c2nnc(-c3cccc(S(=O)(=O)N4CCCCC4)c3)o2)cc(OC)c1OC`, the RP-LC retention time worked out at 1010 s.
For the compound `CCOc1cc(C(=O)NC(C(=O)Nc2nc3ccccc3[nH]2)C(C)CC)cc(OCC)c1OCC` (stereo not drawn), the RP-LC retention time stood at 854 s.
The compound `Cc1c(F)cccc1NC(=O)N1C[C@@H](F)C[C@H]1C(=O)N1CCc2ccccc2C1` yielded an RP-LC retention time of 799 s.
Then `COc1cc2c3cc1Oc1c(OC)c(OC)cc4c1C(Cc1ccc(cc1)Oc1cc(ccc1O)CC3N(C)CC2)N(C)CC4` (stereo not drawn), with 579 s.
Regarding `CCC(C)NC(=O)C1CCN(S(=O)(=O)c2c(C)nn(CC(=O)Nc3ccc(C)cc3)c2C)CC1` (stereo not drawn), the RP-LC retention time was 806 s.
For the compound `Cc1cc(NC(=O)c2cccc(N3C(=O)CCC3=O)c2)on1`, the RP-LC retention time came out at 622 s.
Then `O=S(=O)(c1ccc(-c2noc(-c3cccc(F)c3)n2)cc1)N1CCOCC1`, with 1090 s; and `Cc1c(NC(=O)C2CCC2)c(=O)n(-c2ccccc2)n1C`, with 596 s; and `OCCn1cc(-c2ccc3c(c2)CC/C3=N\O)c(-c2ccncc2)n1`, with 603 s.
With `CCc1nc2cc(-c3noc(Cc4ccc(OC)cc4Cl)n3)ccc2o1`, the RP-LC retention time came to 1190 s.
Then `O=C(N[C@H]1C[C@@H]2C[C@H]1N(C(=O)Nc1ccc3c(c1)CCC3)C2)c1ccccc1`, with 950 s; and `Cc1ccc(S(=O)(=O)N2C[C@@H](F)C[C@H]2C(=O)N2CCCCC2)cc1C`, with 823 s.
Then `Cc1[nH]c(C)c(S(=O)(=O)N2CCC(C(=O)NC3CCCCC3)CC2)c1C(=O)N1CCCCC1`, with 720 s; and `Cn1nc(C(=O)Nc2ccccc2)c2c1CCN(C(=O)NCc1ccco1)C2`, with 760 s.
The compound `CC(c1ccccc1)N1CC(=O)N(c2cccc(Cl)c2)[C@@H]2CS(=O)(=O)C[C@@H]21` (stereo partly drawn) returned an RP-LC retention time of 894 s.
`CN1C(=O)c2ccccc2Oc2ccc(C(=O)NCc3ccc4c(c3)OCO4)cc21` had an RP-LC retention time of 826 s.
For `CSc1nnc(-c2nn(C)c3c2CN(C(=O)c2ccccc2Cl)CC3)n1C` the value was 710 s; for `Cc1oc(-c2ccc(C(=O)NCCN(C)C)cc2)nc1CSc1ccccc1`, 696 s.
`CC1CCC(NC(=O)C2CCCN(c3cn[nH]c(=O)c3)C2)CC1` (stereo not drawn) came in with an RP-LC retention time of 680 s.
Then `Cc1ccn2cc(-c3ccc(NS(=O)(=O)c4cccc([N+](=O)[O-])c4)cc3)nc2n1`, with 662 s; and `CCc1nnc(NC(=O)CSc2nnc(NC(=O)NC(C)(C)C)s2)s1`, with 672 s.
For `COc1cc(Nc2nc3ccccc3nc2NS(=O)(=O)c2ccc(NC(=O)c3ccc(C)c(OC)c3)cc2)cc(OC)c1` the value was 1240 s.
For `CC(C)N1CCN(Cc2nc(-c3ccc(N(C)Cc4ccccc4)nc3)no2)CC1` the value was 661 s; for `CCOCCCNC(=O)N1CCN(c2nnc(C)c3c(C)n(-c4ccc(C)cc4)nc23)CC1`, 669 s.
With `COc1ccc(-c2noc(C(C)NC(C)=O)n2)cc1` (stereo not drawn), the RP-LC retention time stood at 680 s.
Then `Cc1cccc2nnc(N3CCN(C(=O)c4cccc(Br)c4)CC3)n12`, with 683 s; and `COc1cc(OC)cc(-c2noc(-c3nn(-c4ccc(C)c(C)c4)ccc3=O)n2)c1`, with 979 s; and `COCC(=O)Nc1ccc(-c2nc3cccnc3s2)cc1C`, with 729 s.
Then `COc1ccc2c(c1)-c1nc(NC(=O)c3ccccc3C)sc1CC2`, with 1130 s; and `COC1CN(C2CCN(C(=O)CC(C)C)CC2)C12CCOCC2` (stereo not drawn), with 579 s.
Compound `CN(C)c1ccc(CN2C(=O)CN(S(C)(=O)=O)CC2(C)C(=O)NCc2ccc(Cl)cc2)cc1` (stereo not drawn) displayed an RP-LC retention time of 662 s.
The compound `CCOc1ccc(NC(=O)c2[nH]c(C)c(S(=O)(=O)N3CCCCC3)c2C)cc1` had an RP-LC retention time of 979 s.
Then `COc1ccc(NC(=O)C2CCCN(c3nccnc3Sc3ccccc3)C2)cc1F` (stereo not drawn), with 1050 s.
Then `CCc1cc(C2CCCN2C(=O)c2cnn3c(C(F)(F)F)cc(-c4ccco4)nc23)on1` (stereo not drawn), with 870 s.
Then `CC(C)Cn1cc(CCNC(=O)c2ccc(C(F)(F)F)cc2)c2cccnc21`, with 940 s; and `O=C(NC1CCCCC1)[C@@H]1C[C@@H](O)CN1C1CCN(C(=O)c2ccc(Cn3ccnc3)o2)CC1`, with 551 s.
Turning to `COCCCNC(=O)NC(C(=O)N1CCc2ccccc21)c1ccccc1` (stereo not drawn), the RP-LC retention time came to 798 s.
`CCn1c(SCC(=O)N2CCCC2)nnc1-c1ccc2c(c1)OCCCO2`: the RP-LC retention time stood at 666 s.
For `CC1(CNC(=O)c2ccc3c(c2)OCO3)CCOCC1` the value was 664 s.
For `CCN1CCN(C(=O)Cn2c(=O)c3cnc(-c4ccc(Cl)cc4)nc3n(CC)c2=O)CC1` the value was 716 s; for `Cc1ccc(C(=O)Nc2ccc(S(N)(=O)=O)cc2)cc1Br`, 768 s.
